Experiments:
Assay in all cases: isothermal titration calorimetry
[1] = test system: TelQ (DNA, G4) TTAGGGTTAGGGTTAGGGTTAGGG; settings: 10 mM Na phosphate, pH 6.5, 25°C
[2] = test system: TelM (DNA, single strand) TTAGGGTTAGAGTTAGGGTTAGGG; settings: 100 mM NaCl; 10 mM Na phosphate, pH 6.5, 25°C; site 1 of 2
[3] = test system: dsDNA (DNA, duplex) TTAGGGTTAGGGTTAGGGTTAGGG/CCCTAACCCTAACCCTAACCCTAA; settings: 100 mM NaCl or 100 mM KCl (not specified), Na+ 10 mM (Na phosphate), pH 6.5, 25°C

CC(=N)NCCNc1c2c(c(NCCNC(C)=N)c3sccc13)C(=O)c1ccccc1C2=O
K ass ([1]; 100 mM KCl, text prints 1.0±0.15 × 10^7): 10.6±1.7 × 10^6 M^-1 | K ass ([1]; 100 mM NaCl): 0.9±0.1 × 10^6 M^-1 | K ass [2]: 200±70 × 10^6 M^-1 | K ass [3]: 2.2±0.1 × 10^6 M^-1

Source: paper PMC3216923 (2011)
